Data: publication PMC11466185, “Mechanisms and efficacy of small molecule latency-promoting agents to inhibit HIV reactivation ex vivo” (JCI Insight, 2024)
Values joined by “and” are separate entries in the source; they are usually repeats but may differ in a detail not shown here. Equal entries are not always repeated. Where two headings read alike, the source gives them in different places.

Legend:
[1] = system: HIV transcripts (PolyA, TatRev); experiment: Dose-response curves of LPAs: polyadenylated and multiply spliced HIV transcripts 24 hours after activation; format: cell-based; conditions: for MS Tat-Rev (dose-response) / PolyA (dose-response): 24 hours, 1 participant per drug; for IC50: 24 h, PBMCs from 1 participant per drug
Protocol: The IC50 was determined based on the reduction in completed (PolyA) as well as multiply spliced (TatRev) HIV transcripts relative to activated DMSO (Table 1).
Figure 2 Dose-response curves of LPAs. Dose-response curves for each drug were generated in PBMCs from 1 ART-suppressed study participant per drug. PBMCs were aliquoted into wells at 6 × 10^6 cells/well, activated, and cultured with antiretrovirals in the presence of DMSO alone (no drug) or varying concentrations of individual drugs in DMSO. After 24 hours, the levels of polyadenylated and multiply spliced HIV transcripts were quantified by RT-ddPCR, normalized to 1 μg of total cellular RNA, and expressed as a percentage of the activated DMSO control (% of activated DMSO).

[2] = system: HIV transcripts (TAR, LLTR, Pol, PolyA, TatRev); experiment: Latency reversal assay: cell-associated HIV transcripts (RT-ddPCR) 24 hours after anti-CD3/CD28 activation of PBMCs from ART-suppressed PWH; format: cell-based; set-up: key to TatRev: % of activated DMSO control, normalized to 1 μg total RNA; conditions: for Pol HIV transcripts (DMSO αCD3/28 = 100) / PolyA HIV transcripts (DMSO αCD3/28 = 100) / TatRev HIV transcripts (DMSO αCD3/28 = 100): αCD3/28-activated, ruxolitinib 4μM, triptolide 25-50nM, alvocidib 40nM, dinaciclib 8nM, AZD4573 8nM, quercetin 5μM, pladienolide B 10nM, isoginkgetin 25μM, herboxidiene 5nM, KRIBB11 2.5μM, tanespimycin 5μM, mithramycin A 25nM; for PolyA/LLTR / TatRev/PolyA / LLTR/TAR: DMSO+CD3/28 = 1, Fig 3B, C and D; for PolyA / TatRev: DMSO+αCD3/28 = 100, Fig 3A
Method in brief: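 PBMCs from ART-suppressed people with HIV (6 × 10^6 cells/well) treated with drug in DMSO, activated with anti-CD3/CD28 beads with antiretrovirals, harvested after 24 hours. TAR, LLTR, Pol, PolyA and TatRev transcripts measured by RT-ddPCR, normalized to 1 μg total RNA, expressed as % of activated DMSO control.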

PBMCs = experiment: Cell viability by trypan blue staining after 24 hours; format: cell-based, human; conditions: for Viability (dose-response): 1 participant per drug, in % (unit assumed)
Method in brief: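 PBMCs from ART-suppressed donors at 6 × 10^6 cells/well were activated with CD3/28 beads and cultured with antiretrovirals plus drug in DMSO. Viability counted by trypan blue after 24 hours. Values were normalized to the activated DMSO control.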

[3] = 100nM, 24 h after αCD3/28 activation, each column one participant
[4] = 10/100nM, 24 h after αCD3/28 activation, each column one participant

Which results are given for pladienolide B?
MS Tat-Rev (dose-response) ([1]; dose 0.1 nM): 34.26 % of activated DMSO; PolyA (dose-response) ([1]; dose 0.1 nM): 47.95 % of activated DMSO; MS Tat-Rev (dose-response) ([1]; dose 1 nM): 17.07 % of activated DMSO; PolyA (dose-response) ([1]; dose 1 nM): 43.55 % of activated DMSO; MS Tat-Rev (dose-response) ([1]; dose 10 nM): 0.76 % of activated DMSO; PolyA (dose-response) ([1]; dose 10 nM): 4 % of activated DMSO; IC50 ([1]; reduction in PolyA HIV transcripts relative to activated DMSO, read-out: Completed (PolyA) IC50): 180 pM; IC50 ([1]; reduction in TatRev HIV transcripts relative to activated DMSO, read-out: Multiply spliced (TatRev) IC50): 60 pM; LLTR HIV transcripts (DMSO+αCD3/28 = 100) [2, 3]: 105.44 and 112.17; Pol HIV transcripts (DMSO+αCD3/28 = 100) [2, 3]: 61.14 and 46.29; TatRev HIV transcripts (DMSO+αCD3/28 = 100) [2, 3]: 0; LLTR HIV transcripts (DMSO+αCD3/28 = 100) [2, 4]: 105.44 and 112.17 and 22.15 and 34.23 and 14.5 and 7.78 and 32.23; Pol HIV transcripts (DMSO+αCD3/28 = 100) [2, 4]: 61.14 and 46.29 and 2.85 and 58.11 and 12.19 and 5.03 and 29.65; PolyA HIV transcripts (DMSO+αCD3/28 = 100) [2, 4]: 25.19 and 8; TAR HIV transcripts (DMSO+αCD3/28 = 100) [2, 4]: 70.83 and 56.32 and 43.76 and 138.46; TatRev HIV transcripts (DMSO+αCD3/28 = 100) [2, 4]: 0 (4×) and 2.98 and 6.21 and 11.47; HIV transcriptional completion, ratio PolyA/LLTR ([2]; 24 hours, compared with activated DMSO, Figure 3C): reduced; HIV multiple splicing, ratio TatRev/PolyA ([2]; 24 hours, compared with activated DMSO, Figure 3D): reduce HIV multiple splicing; Reduction of multiply spliced or completed HIV transcripts in drug screen (selection as candidate LPA) ([2]; initial screening, 2 participants, 24 hours): more than 50%; Completed (PolyA) HIV transcripts, median relative to activated DMSO, initial screening ([2]; initial screening, 2 participants, 24 hours, Supplemental Figure 2): 17%; Pol HIV transcripts (DMSO αCD3/28 = 100) ([2]; participant 2027): 56.14; PolyA HIV transcripts (DMSO αCD3/28 = 100) ([2]; participant 2027): 45.13; TatRev HIV transcripts (DMSO αCD3/28 = 100) ([2]; participant 2027): 0; Pol HIV transcripts (DMSO αCD3/28 = 100) ([2]; participant 2147a): 74.51; PolyA HIV transcripts (DMSO αCD3/28 = 100) ([2]; participant 2147a): 38.34; TatRev HIV transcripts (DMSO αCD3/28 = 100) ([2]; participant 2147a): 22.95; Pol HIV transcripts (DMSO αCD3/28 = 100) ([2]; participant 2161): 44.19; PolyA HIV transcripts (DMSO αCD3/28 = 100) ([2]; participant 2161): 152.38; TatRev HIV transcripts (DMSO αCD3/28 = 100) ([2]; participant 2161): 381.82; PolyA HIV transcripts (DMSO αCD3/28 = 100) ([2]; participant 2461): 53.85; Pol HIV transcripts (DMSO αCD3/28 = 100) ([2]; participant 2747): 21.03; PolyA HIV transcripts (DMSO αCD3/28 = 100) ([2]; participant 2747): 65.33; TatRev HIV transcripts (DMSO αCD3/28 = 100) ([2]; participant 2747): 0; Pol HIV transcripts (DMSO αCD3/28 = 100) ([2]; participant 2750): 212.24; PolyA HIV transcripts (DMSO αCD3/28 = 100) ([2]; participant 2750): 74.85; TatRev HIV transcripts (DMSO αCD3/28 = 100) ([2]; participant 2750): 155; Multiply spliced HIV transcripts (TatRev) (Fig 1B) ([2]; study participant 150a, 24 hours): 0 % of activated DMSO; PolyA/LLTR ([2]; study participant 150a): 0.2389; TatRev/PolyA ([2]; study participant 150a): 0; PolyA ([2]; study participant 150a): 25.19; TatRev ([2]; study participant 150a): 0; Multiply spliced HIV transcripts (TatRev) (Fig 1B) ([2]; study participant 152, 24 hours): 0 % of activated DMSO; PolyA/LLTR ([2]; study participant 152): 0.07129; TatRev/PolyA ([2]; study participant 152): 0; PolyA ([2]; study participant 152): 8; TatRev ([2]; study participant 152): 0; PolyA/LLTR ([2]; study participant 163): 0.2589; TatRev/PolyA ([2]; study participant 163): 0; PolyA ([2]; study participant 163): 5.73; TatRev ([2]; study participant 163): 0; LLTR/TAR ([2]; study participant 1379): 0.1778; PolyA/LLTR ([2]; study participant 1379): 0.4115; TatRev/PolyA ([2]; study participant 1379): 0; PolyA ([2]; study participant 1379): 3.2; TatRev ([2]; study participant 1379): 0; LLTR/TAR ([2]; study participant 2147b): 0.4833; PolyA/LLTR ([2]; study participant 2147b): 0.2849; TatRev/PolyA ([2]; study participant 2147b): 0.3058; PolyA ([2]; study participant 2147b): 9.75; TatRev ([2]; study participant 2147b): 2.98; LLTR/TAR ([2]; study participant 2256): 0.2575; PolyA/LLTR ([2]; study participant 2256): 0.2751; TatRev/PolyA ([2]; study participant 2256): 1.556; PolyA ([2]; study participant 2256): 3.99; TatRev ([2]; study participant 2256): 6.21; LLTR/TAR ([2]; study participant 5557): 0.2328; PolyA/LLTR ([2]; study participant 5557): 0.5006; TatRev/PolyA ([2]; study participant 5557): 0.7112; PolyA ([2]; study participant 5557): 16.13; TatRev ([2]; study participant 5557): 11.47; Viability (dose-response) (PBMCs; dose 0.1 nM): 74.768; Viability (dose-response) (PBMCs; dose 1 nM): 75.444; Viability (dose-response) (PBMCs; dose 10 nM): 68.259; Cell viability (in words) (PBMCs; initial screening concentrations, Figure 1A): impact on cell viability; Viability (Fig 1A) (PBMCs; study participant 150a): 75.5 % of activated DMSO; Viability (Fig 1A) (PBMCs; study participant 152): 79.98 % of activated DMSO
